Laboratory results reported in patent US12410141B2, “Anti-cancer spirocyclic-guanidine compounds and uses thereof” (The Johns Hopkins University, priority 2020, dated 2025).
Each block holds one molecule with its values, some of them ahead of it.

Assays:
[1] = under these conditions; reference (34); cited from earlier work
[2] = target: T1, 42 kDa cellular protein previously identified as RPN13 (Homo sapiens, UniProt Q16186); assay: Labeling of ES2 cell lysate with biotinylated probes; type: binding; details: 45 min at 4° C., streptavidin-HRP
T1 construct: endogenous in cells; host or cells: ES2 cell lysate (clarified, in MPER buffer)
Protocol: (§1) ES2 cell lysates were incubated with 20 μM RA190B for 45 min at 4° C., and then separated by SDS-PAGE, transferred to a PVDF membrane.
The lysates were then separated by SDS-PAGE, transferred to a PVDF membrane.

[3] = system: high molecular weight polyubiquitinated proteins in SKOV3 cells; assay: Western blot for polyubiquitinated proteins, SKOV3 cells; type: cell-based; details: 12 hr, Up284 and RA475 0.5 and 1 μM, RA190 1 μM
Protocol: Cell lysate (10-20 μg total protein) prepared in MPER (Pierce) from each sample was subjected to SDS-PAGE, transferred to PVDF membranes and analyzed by Western blot using antibodies specific for ubiquitin (P4D1, sc-8017, Santa Cruz), or after stripping antibody for actin (#66009, Protein Tech Group), at the dilutions recommended by the manufacturers, and for secondary antibodies either peroxidase-linked anti-mouse IgG or anti-rabbit IgG (GE Healthcare UK Ltd) were utilized at the recommended dilution. The blots were developed using HyGLO chemiluminescent detection reagent (Denville).
Like RA190, RA475 was designed to be an inhibitor of upstream 19S RP proteasome function. […] Treatment with the same doses of Up284 (0.5 and 1 μM) or 1 μM RA190 provided positive controls, and vehicle alone (DMSO) was used as the negative control. At the end of the incubation, attached cells were lysed using MPER buffer according to the manufacturer's protocol. The lysates were subjected to Western blot analysis using antibody to ubiquitin, and then stripped and re-probed with actin antibody to provide a loading control (FIG. 5).
Proteasome inhibitors cause a rapid accumulation of polyUb proteins that is associated with unresolved UPR stress and the induction of apoptosis. Since RA475 is cytotoxic to ovarian cancer cells (Table 1), and induces such a rapid accumulation of polyUb proteins (FIG. 5), it was examined whether RA475 also triggered apoptosis. SKOV3 cells (FIG. 5A) were treated with Up284 (0.5 μM and 1 μM), 1 μM RA190, RA475 (0.5 μM and 1 μM) or vehicle alone (DMSO) and then cultured for 12 hr. OVCAR3 cells (FIG. 5B) were treated with Up284 (0.5 μM), Bortezomib (Bz, 0.25 μM), Ixazomib (Iz, 0.25 μM), RA475 (0.5 μM and 1 μM) or vehicle alone (DMSO). The attached cells were harvested and their lysates were subjected to Western blot analysis, first probed with antibody to ubiquitin and then to actin.

42 kDa RPN13 = target: T2, 42 kDa RPN13 (Homo sapiens, UniProt Q16186); assay: RA190B competitive labeling assay in ES2 cell lysate; type: binding; details: ES2 cell lysate pre-incubated 45 min at 4° C. (bortezomib or Up compounds 5 μM), then RA190B 20 μM
T2 construct: endogenous in cells; host or cells: ES2 cell lysate (clarified, in MPER buffer)
Protocol: (§2) Clarified cell lysate (40 ug/sample) in MPER buffer was pretreated with streptavidin-coated magnetic beads for 45 min at 4° C. to deplete non-specific biotinylated proteins in the cell lysate. […] Next, the samples were mixed with Laemmli sample buffer (BioRad) and boiled for 5 min. The proteins were separated using a 4-15% Bio-Rad Mini-PROTEAN SDS-PAGE gel (1 hr at 100 V), and transferred to PVDF membrane overnight at 4° C. (24 V). The membrane was blocked with 5% BSA in PBST for 1 hr at RT and washed for 20 minutes (3× with PBST). Then the membrane was probed with HRP-streptavidin (1:10,000 in PBST) for 1 hr at RT, washed for 30 min (3× with PBST), and developed using HyGLO chemiluminescent detection reagent (Denville) for biotin detection.
as §1

PEA2 = assay: MTT cytotoxicity assay, PEA2; type: cell-based; details: PEA2, ovarian, 72 hr, read-out: IC50, cell killing
Protocol: (§3) All cell lines were obtained from the American Type Culture Collection (ATCC) and cultured in the specified medium supplemented with 10% fetal bovine serum, 100 IU/mL penicillin, and 100 μg/mL streptomycin at 37° C. in a humidified 5% CO2/95% air incubator. To assess drug cytotoxicity cells were seeded at 2,500 cells/well (10,000 cells/well for MM lines and primary cells) in 100 μL medium in 96-well plate. […]
(§4) It was examined whether the RPN13 inhibitor, RA475, was cytotoxic for cancer cell lines using the MTT assay.

PEA1 = assay: MTT cytotoxicity assay, PEA1; type: cell-based; details: PEA1, ovarian, 72 hr, read-out: IC50, cell killing
Protocol: as §3, §4

PACS = assay: MTT cytotoxicity assay, PACS; type: cell-based; details: ovarian (mouse), 72 hr, read-out: IC50, cell killing
Protocol: as §3, §4

[4] = target: T3, 42 kDa cellular protein, consistent with RPN13 (Homo sapiens, UniProt Q16186); assay: Up284B competitive labeling assay in SKOV3 or ES2 cell lysates; type: binding; details: pre-cleared SKOV3 or ES2 lysates, 45 min at 4° C., then 5 μM Up284B
T3 construct: endogenous in cells; host or cells: SKOV3 or ES2 cell lysates, pre-cleared with streptavidin-coated beads
Protocol: as §2
Briefly SKOV3 or ES2 cell lysates were first pre-cleared with streptavidin-coated beads to deplete endogenous biotinylated proteins. The pre-cleared lysates were then divided into equal aliquots. […] The lysates were then boiled in gel sample buffer, separated by SDS-PAGE, and transferred to a PVDF membrane.

T2 sequence (Q16186 whole entry): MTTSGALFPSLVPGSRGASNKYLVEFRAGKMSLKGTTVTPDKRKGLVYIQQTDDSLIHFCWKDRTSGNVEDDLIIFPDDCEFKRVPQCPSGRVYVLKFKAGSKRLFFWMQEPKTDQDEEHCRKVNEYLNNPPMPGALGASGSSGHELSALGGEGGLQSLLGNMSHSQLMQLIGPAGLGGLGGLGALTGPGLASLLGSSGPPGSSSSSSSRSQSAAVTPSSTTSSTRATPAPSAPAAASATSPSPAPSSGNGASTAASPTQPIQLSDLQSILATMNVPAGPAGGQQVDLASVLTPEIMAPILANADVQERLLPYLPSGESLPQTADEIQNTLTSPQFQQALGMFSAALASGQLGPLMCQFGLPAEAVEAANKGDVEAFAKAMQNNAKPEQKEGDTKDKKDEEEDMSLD
T3 sequence (Q16186 whole entry): as above
T1 sequence (Q16186 whole entry): as above

Structure (SMILES): N[C@@H](Cc1ccccc1)C(=O)N1C/C(=C\c2ccc([N+](=O)[O-])cc2)C(=O)/C(=C/c2ccc([N+](=O)[O-])cc2)C1 [RA183]
metabolism under the plasma / liver microsome conditions [1]: rapidly metabolized

binding of biotinylated probe to the 42 kDa cellular protein [2]: bound to the 42 kDa cellular protein
Structure (SMILES): O=C(CCCC[C@@H]1SCC2NC(=O)NC21)N[C@@H](Cc1ccccc1)C(=O)N1C/C(=C\c2ccc(Cl)c(Cl)c2)C(=O)/C(=C/c2ccc(Cl)c(Cl)c2)C1 (some centres unmarked) [RA190B]

Structure (SMILES): N[C@@H](Cc1ccccc1)C(=O)N1C/C(=C\c2ccc(Cl)c(Cl)c2)C(=O)/C(=C/c2ccc(Cl)c(Cl)c2)C1 [RA190]
accumulation of polyUb proteins [3]: profound accumulation
competition with binding of RA190B to the 42 kDa RPN13 (42 kDa RPN13): competed with the binding of RA190B to the 42 kDa protein
metabolism under the plasma / liver microsome conditions [1]: rapidly metabolized

Structure (SMILES): N#Cc1ccc(/C=C2/C(=O)/C(=C/c3ccc(C#N)cc3)C23CCN(C(=N)N)C3)cc1 [RA477]
IC50 (PEA2): 312 nM
IC50 (PEA1): 331 nM
IC50 (PACS): 405 nM

competition with binding of RA190B to the 42 kDa RPN13 (42 kDa RPN13): competed
Structure (SMILES): C=CC(=O)N1CCC2(CC1)/C(=C\c1ccc(C#N)cc1)C(=O)/C2=C/c1ccc(C#N)cc1 [Up285]

competition with binding of Up284B probe to RPN13 [4]: not competed
Structure (SMILES): CC(C)C[C@H](NC(=O)[C@H](Cc1ccccc1)NC(=O)c1cnccn1)B(O)O [bortezomib, reference compound]
competition with binding of RA190B to the 42 kDa RPN13 (42 kDa RPN13): neither the vehicle (DMSO) nor bortezomib (negative controls) competed
